# Test results reported in ChEMBL document CHEMBL1136786, “2002 Medicinal Chemistry Division Award address: monoamine transporters and opioid receptors. Targets for addiction therapy” (J Med Chem, 2003).
# Values joined by “and” are separate entries in the source; they are usually repeats but may differ in a detail not shown here. Identical values can stand only once. Active and inactive are the calls of the source. The rule behind the calls is not given here.
# Tests used:
# [1] = biological target: Sodium-dependent serotonin transporter (Rattus norvegicus, UniProt P31652); assay: Inhibition of [3H]paroxetine binding at serotonin transporter was determined
# [2] = biological target: Mu-type opioid receptor (Cavia porcellus) (UniProt P97266); assay: Inhibition of [35S]GTP-gamma-S, binding in guines pig caudate stimulated by DAMGO for Opioid receptor mu 1; type: functional
# [3] = biological target: Kappa-type opioid receptor (Cavia porcellus) (UniProt P41144); assay: Inhibition of [35S]GTP-gamma-S, binding in guines pig caudate stimulated by U69, 593 of Opioid receptor kappa 1; type: functional
# [4] = biological target: D(2) dopamine receptor (Rattus norvegicus) (UniProt P61169); conditions: Nucleus accumbens
# [5] = biological target: D(2) dopamine receptor (Rattus norvegicus) (UniProt P61169)
# [6] = biological target: T1, Norepinephrine transporter (Rattus norvegicus, UniProt Q9WTR4); assay: Affinity for norepinephrine transporter determined by [3H]nisoxetine displacement.
# [7] = biological target: T1, Norepinephrine transporter; assay: Inhibition of [3H]nisoxetine binding at norepinephrine transporter
# [8] = biological target: Sodium-dependent dopamine transporter (Rattus norvegicus, UniProt P23977); assay: Inhibition of [3H]WIN-35428 binding at dopamine transporter was determined
# Rattus norvegicus [9] = assay: Time taken to produce maximal locomotor activity at 30 min period in rat by intraperitoneal administration; type: functional
# Rattus norvegicus [10] = assay: Time during which activity returned to baseline level in rat by intraperitoneal administration; type: functional
# Rattus norvegicus [11] = assay: Effective dose of compound required to produce maximal locomotor activity in cocaine-trained rat by intraperitoneal administration; type: functional; conditions: ip
# Rattus norvegicus [12] = assay: Effective dose of compound required to produce maximal locomotor activity in rat by intraperitoneal administration; type: functional; conditions: ip
# Rattus norvegicus [13] = assay: Maximal locomotor activity of compound compared as a percent of cocaine's effect in rat by intraperitoneal administration; type: functional
# Mus musculus [14] = species: Mus musculus; assay: Antagonistic activity of nicotine-induced hypothermia in mice was determined; type: functional
# Mus musculus [15] = species: Mus musculus; assay: Antagonistic activity of nicotine-induced analgesia in mice was determined; type: functional
# Rattus norvegicus [16] = assay: Degradation rate constant for dopamine transporter in nucleus accumbens after intraventricular injection of 100 nmol of compound; type: functional
# Rattus norvegicus [17] = species: Rattus norvegicus; type: functional, Striatum
# Rattus norvegicus [18] = assay: Half life of recovery for dopamine transporter in striatum after intraventricular injection of 100 nmol of compound; type: functional, organism-based
# Rattus norvegicus [19] = assay: Degradation rate constant for dopamine transporter in striatum after intraventricular injection of 100 nmol of compound; type: functional
# Rattus norvegicus [20] = species: Rattus norvegicus; type: functional, Cardiac ventricle
# Rattus norvegicus [21] = assay: Half life of recovery for dopamine transporter in nucleus accumbens after intraventricular injection of 100 nmol of compound; type: functional, organism-based
# [22] = biological target: D(1A) dopamine receptor (Rattus norvegicus) (UniProt P18901); conditions: Striatum
# [23] = biological target: D(1A) dopamine receptor (Rattus norvegicus) (UniProt P18901); conditions: Striatum; remark: listed apart in the source
# Mu-type opioid receptor = Mu-type opioid receptor (Cavia porcellus, UniProt P97266); assay: Inhibition of binding of [3H]DAMGO to Opioid receptor mu 1 in guinea pig membranes; type: cell membranes
# Rattus norvegicus [24] = species: Rattus norvegicus; assay: Degradation rate constant for dopamine transporter in striatum was determined; type: functional
# Rattus norvegicus [25] = species: Rattus norvegicus; assay: Half life of recovery for dopamine transporter in nucleus accumbens was determined; type: functional
# Rattus norvegicus [26] = species: Rattus norvegicus; assay: Degradation rate constant for dopamine transporter in nucleus accumbens was determined; type: functional
# Rattus norvegicus [27] = species: Rattus norvegicus; assay: Half life of recovery for dopamine transporter in striatum was determined; type: functional
# Mu-type opioid receptor (Cavia porcellus), sequence (P97266 whole entry): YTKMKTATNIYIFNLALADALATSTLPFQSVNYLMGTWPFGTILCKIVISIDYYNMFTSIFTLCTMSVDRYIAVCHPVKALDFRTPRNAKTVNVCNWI
# Sodium-dependent serotonin transporter, sequence (P31652 whole entry): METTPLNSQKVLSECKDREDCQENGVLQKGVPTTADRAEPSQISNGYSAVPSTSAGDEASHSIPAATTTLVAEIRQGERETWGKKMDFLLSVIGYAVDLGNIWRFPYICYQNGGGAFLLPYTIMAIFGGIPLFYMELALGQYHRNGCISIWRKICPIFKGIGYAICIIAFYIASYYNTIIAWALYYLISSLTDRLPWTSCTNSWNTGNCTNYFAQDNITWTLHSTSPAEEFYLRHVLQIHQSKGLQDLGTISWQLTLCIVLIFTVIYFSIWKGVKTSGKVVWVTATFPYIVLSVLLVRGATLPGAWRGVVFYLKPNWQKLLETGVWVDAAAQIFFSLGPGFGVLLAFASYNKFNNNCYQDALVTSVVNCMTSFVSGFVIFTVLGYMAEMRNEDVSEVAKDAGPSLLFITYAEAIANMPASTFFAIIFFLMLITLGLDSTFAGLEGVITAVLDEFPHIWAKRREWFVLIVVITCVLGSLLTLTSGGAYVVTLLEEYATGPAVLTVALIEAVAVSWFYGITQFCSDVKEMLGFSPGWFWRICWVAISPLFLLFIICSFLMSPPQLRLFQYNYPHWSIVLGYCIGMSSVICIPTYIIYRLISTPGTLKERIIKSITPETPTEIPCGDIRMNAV
# Sodium-dependent dopamine transporter, sequence (P23977 whole entry): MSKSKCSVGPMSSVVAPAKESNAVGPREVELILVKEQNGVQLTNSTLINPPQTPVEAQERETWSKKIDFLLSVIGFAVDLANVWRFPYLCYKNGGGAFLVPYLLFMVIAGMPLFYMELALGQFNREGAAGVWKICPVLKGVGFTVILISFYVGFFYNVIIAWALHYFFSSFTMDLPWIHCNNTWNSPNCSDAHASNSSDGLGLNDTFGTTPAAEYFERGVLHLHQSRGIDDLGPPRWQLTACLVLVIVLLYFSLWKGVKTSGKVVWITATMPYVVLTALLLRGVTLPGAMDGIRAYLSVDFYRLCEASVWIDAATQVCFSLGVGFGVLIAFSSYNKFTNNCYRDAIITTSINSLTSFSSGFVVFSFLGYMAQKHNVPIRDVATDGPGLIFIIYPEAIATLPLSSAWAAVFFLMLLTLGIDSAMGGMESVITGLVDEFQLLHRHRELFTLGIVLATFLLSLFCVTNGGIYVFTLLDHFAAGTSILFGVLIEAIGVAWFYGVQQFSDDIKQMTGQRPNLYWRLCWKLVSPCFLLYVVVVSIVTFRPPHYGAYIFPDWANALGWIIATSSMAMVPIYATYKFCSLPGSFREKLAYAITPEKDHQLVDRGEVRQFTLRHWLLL
# D(1A) dopamine receptor (Rattus norvegicus), sequence (P18901 whole entry): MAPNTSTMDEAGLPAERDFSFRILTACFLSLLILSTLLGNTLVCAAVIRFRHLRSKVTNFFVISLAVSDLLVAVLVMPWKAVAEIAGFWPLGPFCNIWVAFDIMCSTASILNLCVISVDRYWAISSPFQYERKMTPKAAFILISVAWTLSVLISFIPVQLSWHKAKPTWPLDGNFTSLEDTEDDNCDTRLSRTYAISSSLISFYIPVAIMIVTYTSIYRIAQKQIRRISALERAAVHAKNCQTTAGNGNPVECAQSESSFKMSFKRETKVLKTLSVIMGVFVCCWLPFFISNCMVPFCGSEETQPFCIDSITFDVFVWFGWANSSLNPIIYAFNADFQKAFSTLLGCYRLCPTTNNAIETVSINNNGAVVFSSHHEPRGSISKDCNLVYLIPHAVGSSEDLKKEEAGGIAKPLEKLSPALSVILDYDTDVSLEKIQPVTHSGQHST
# Kappa-type opioid receptor (Cavia porcellus), sequence (P41144 whole entry): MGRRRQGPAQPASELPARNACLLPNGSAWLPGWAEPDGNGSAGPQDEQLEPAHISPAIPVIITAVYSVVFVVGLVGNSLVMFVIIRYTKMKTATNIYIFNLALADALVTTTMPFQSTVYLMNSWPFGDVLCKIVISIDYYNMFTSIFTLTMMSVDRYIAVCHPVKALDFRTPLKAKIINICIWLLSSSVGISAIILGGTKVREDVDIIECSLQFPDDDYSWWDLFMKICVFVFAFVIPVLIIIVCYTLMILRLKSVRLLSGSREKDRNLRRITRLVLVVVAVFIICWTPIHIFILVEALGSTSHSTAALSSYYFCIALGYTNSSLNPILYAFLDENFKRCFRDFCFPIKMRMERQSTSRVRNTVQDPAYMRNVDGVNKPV
# D(2) dopamine receptor (Rattus norvegicus), sequence (P61169 whole entry): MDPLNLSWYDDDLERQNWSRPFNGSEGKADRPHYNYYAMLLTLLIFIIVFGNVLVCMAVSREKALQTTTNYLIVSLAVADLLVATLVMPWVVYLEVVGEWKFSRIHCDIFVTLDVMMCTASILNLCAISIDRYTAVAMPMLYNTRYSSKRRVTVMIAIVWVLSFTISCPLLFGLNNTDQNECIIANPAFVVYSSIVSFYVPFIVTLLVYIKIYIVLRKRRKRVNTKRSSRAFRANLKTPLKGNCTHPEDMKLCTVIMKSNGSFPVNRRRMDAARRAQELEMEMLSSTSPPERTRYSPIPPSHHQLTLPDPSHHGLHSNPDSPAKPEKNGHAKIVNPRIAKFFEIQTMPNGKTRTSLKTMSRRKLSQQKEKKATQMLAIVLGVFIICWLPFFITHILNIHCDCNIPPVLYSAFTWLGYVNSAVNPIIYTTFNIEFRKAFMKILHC
# T1 sequence (Q9WTR4 whole entry): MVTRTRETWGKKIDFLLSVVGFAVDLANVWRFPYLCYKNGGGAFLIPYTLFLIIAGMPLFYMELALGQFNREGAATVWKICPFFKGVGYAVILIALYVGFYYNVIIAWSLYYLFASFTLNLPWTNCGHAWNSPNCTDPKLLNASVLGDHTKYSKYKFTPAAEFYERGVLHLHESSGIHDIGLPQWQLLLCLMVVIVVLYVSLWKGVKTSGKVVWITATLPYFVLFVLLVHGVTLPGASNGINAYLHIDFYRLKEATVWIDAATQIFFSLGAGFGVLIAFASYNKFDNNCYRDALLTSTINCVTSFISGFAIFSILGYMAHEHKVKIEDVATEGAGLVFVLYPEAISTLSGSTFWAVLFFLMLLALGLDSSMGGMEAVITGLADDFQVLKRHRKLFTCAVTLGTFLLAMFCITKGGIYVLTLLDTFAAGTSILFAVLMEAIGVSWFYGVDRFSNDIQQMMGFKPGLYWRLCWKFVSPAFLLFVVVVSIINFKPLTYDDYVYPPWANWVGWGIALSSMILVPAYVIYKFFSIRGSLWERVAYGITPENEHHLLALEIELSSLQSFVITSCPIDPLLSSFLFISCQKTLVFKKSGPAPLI
# Mu-type opioid receptor, sequence (P97266 whole entry): as the sequence (P97266 whole entry) above
structure (smiles),measurement,setting,value
COC(=O)C1C2CC[C@H](C[C@H]1c1ccc(Br)cc1)N2C (some centres undefined),IC50,[1],10.6 nM
same,Ki,[1],0.96 nM
CC1C2CCCC1(c1cccc(O)c1)CCN2C (centres undefined),Ke,[2],21.2 nM
same,Ke,[3],105 nM
CCc1cc(Cl)c(OC)c(C(=O)NC[C@@H]2CCCN2CC)c1O,NC,[4],inactive
same,NC,[5],inactive
CN1C2CC[C@@H]1C[C@H](c1ccc(Cl)cc1)C2c1cc(-c2ccccc2)no1 (some centres undefined),Ki,[6],304 nM
same,Ki,[1],220 nM
Cc1ccc([C@H]2C[C@H]3CCC(C2c2ccccc2)N3C)cc1 (some centres undefined),IC50,[7],480 nM
same,Ki,[6],289 nM
same,IC50,[1],11000 nM
same,Ki,[1],1000 nM
same,IC50,[8],1.96 nM
CN1C2CCC1C(C(=O)Oc1ccccc1)C(c1ccc(Cl)cc1)C2 (centres undefined),Peak time,Rattus norvegicus [9],30 min
same,Time,Rattus norvegicus [10],>4 h
same,Ki,[6],1780 nM
same,ED50,Rattus norvegicus [11],2.28 mg/kg
same,Ki,[1],214 nM
same,ED50,Rattus norvegicus [12],0.93 mg/kg
same,Maximal locomotor activity (% of cocaine),Rattus norvegicus [13],128%
C=C(C)c1ccc([C@H]2C[C@H]3CCC(N3)C2C(=O)OC)cc1 (some centres undefined),IC50,[7],144 nM
same,Ki,[6],87 nM
same,IC50,[1],0.6 nM
same,Ki,[1],0.055 nM
same,IC50,[8],23 nM
CC(NC(C)(C)C)C(=O)c1cccc(Cl)c1 (centres undefined) [BUPROPION],AD50,Mus musculus [14],16 mM/kg
same,AD50,Mus musculus [15],9 mM/kg
COC(=O)C1C2CC[C@H](C[C@H]1c1ccc(Cl)c(Cl)c1)N2C (some centres undefined),IC50,[7],18 nM
same,Ki,[6],10.8 nM
same,IC50,[1],3.13 nM
same,Ki,[1],0.28 nM
CN1C2CC[C@@H]1C[C@H](c1ccc(Cl)cc1)C2C(=O)OCCc1ccc(N=S)cc1 (some centres undefined),Transporter deg rate const (k),Rattus norvegicus [16],0.3 day⁻¹
same,Transporter production rate (r),Rattus norvegicus [17],202 fM/mg/day
same,IC50,[7],1400 nM
same,Ki,[6],843 nM
same,T1/2,Rattus norvegicus [18],50.4 h
same,IC50,[1],7.1 nM
same,Ki,[1],0.65 nM
same,Transporter deg rate const (k),Rattus norvegicus [19],0.34 day⁻¹
same,Transporter production rate (r),Rattus norvegicus [20],106 fM/mg/day
same,T1/2,Rattus norvegicus [21],50.4 h
same,IC50,[8],5.3 nM
COC(=O)C1C2CC[C@H](C[C@@H]1c1ccc(C)cc1)N2 (some centres undefined),IC50,[7],9 nM
same,Ki,[6],5.4 nM
same,IC50,[1],500 nM
same,Ki,[1],46 nM
same,IC50,[8],33.6 nM
Oc1cc2c(cc1O)C(c1ccccc1)CNCC2 (centres undefined),NC,[22],inactive
same,NC,[23],inactive
CN1[C@H]2CC[C@@H]1[C@@H](C(=O)N1CCCC1)[C@@H](c1ccc(I)cc1)C2,Ki,[6],596 nM
same,Ki,[1],157 nM
Cc1ccccc1/C=C/CN1CC[C@@](C)(c2cccc(O)c2)[C@@H](C)C1,Ki,Mu-type opioid receptor,0.86 nM
same,Ke,[2],0.013 nM
same,Ke,[3],0.17 nM
C[C@H]1CN(C/C=C/c2ccccc2)CC[C@@]1(C)c1cccc(O)c1,Ki,Mu-type opioid receptor,0.74 nM
same,Ke,[2],0.039 nM
same,Ke,[3],1.04 nM
COC(=O)C1C2CC[C@H](C[C@@H]1c1ccc(Cl)cc1)N2C (some centres undefined),Ki,[1],4.1 nM
COC(=O)[C@H]1[C@@H](OC(=O)c2ccccc2)C[C@@H]2CC[C@H]1N2C [COCAINE],Change,Rattus norvegicus [24],-17% and -16%
same,Change,Rattus norvegicus [25],43%
same,Peak time,Rattus norvegicus [9],0 min
same,Time,Rattus norvegicus [10],<2 h
same,ED50,Rattus norvegicus [11],2.5 mg/kg
same,Change,Rattus norvegicus [26],-30% and -27%
same,ED50,Rattus norvegicus [12],21 mg/kg
same,Change,Rattus norvegicus [27],22%
same,Maximal locomotor activity (% of cocaine),Rattus norvegicus [13],100%
C[C@H]1C2CCCC1(c1cccc(O)c1)CCN2CCc1ccccc1 (some centres undefined),Ke,[2],0.338 nM
same,Ke,[3],1.34 nM
